These results are taken from US20140219986A1, “DOSING REGIMENS FOR THE TREATMENT OF FABRY DISEASE” (AMICUS THERAPEUTICS ,INC., priority 2011, published 2014).

The target of series [1] is T1, α-Gal A (Homo sapiens, UniProt P06280).
T1 construct: purchased Genzyme Corporation (Fabrazyme®)
T1 sequence (P06280 32-429): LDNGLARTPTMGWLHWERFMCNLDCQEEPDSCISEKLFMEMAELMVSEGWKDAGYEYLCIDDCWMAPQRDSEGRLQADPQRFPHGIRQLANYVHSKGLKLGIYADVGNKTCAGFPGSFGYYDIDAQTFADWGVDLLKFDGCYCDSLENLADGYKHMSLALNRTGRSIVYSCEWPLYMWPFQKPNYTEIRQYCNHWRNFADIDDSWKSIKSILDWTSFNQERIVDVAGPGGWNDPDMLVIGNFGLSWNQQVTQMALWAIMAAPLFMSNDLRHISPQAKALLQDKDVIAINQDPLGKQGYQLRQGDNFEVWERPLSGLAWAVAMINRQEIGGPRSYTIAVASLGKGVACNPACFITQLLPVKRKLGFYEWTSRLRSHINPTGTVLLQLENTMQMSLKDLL
As to the kind of experiment: Phase 2 co-administration study: Western blot of plasma α-Gal A protein. Type of series: in vivo. To be noted: 5 out of 7 subjects. On the procedure:
Migalastat HCl and rhα-Gal A Pharmacokinetics. Concentrations of migalastat HCl in blood samples will be measured in plasma using a validated LC-MS/MS assay. α-Gal A levels in plasma will be determined by a validated assay measuring enzyme activity using 4-MUG, with and without Con A. α-Gal A protein levels will be measured by Western blotting using anti-human Gal A antibody.
Western blot analysis of α-Gal A protein were performed on plasma samples using anti-human α-Gal A antibody. An rhα-Gal A (agalsidase) standard curve was run to calculate the appropriate concentration of α-Gal protein in each sample.
For orientation: A western blot detects proteins with antibodies after separation by electrophoresis.

The target in another series is T2, agalsidase alfa (Homo sapiens, UniProt P06280).
T2 construct: purchased Shire Human Genetic Therapies (Replagal®)
T2 sequence (P06280 32-429): T1 sequence (P06280 32-429)
As to the kind of experiment: In vitro thermal denaturation assay of agalsidase alfa. It is filed as binding. On the procedure:
The effect of migalastat hydrochloride on the physical stability of agalsidase alfa was evaluated with an in vitro thermal denaturation assay.

Series [2] has as its target T1, α-Gal A. As to the kind of experiment: Phase 2 co-administration study: PBMC α-Gal A activity (4-MUG). It is filed as in vivo. To be noted: for individual patient increases in PBMC α-Gal A activity: 1 mg/kg. On the procedure:
WBC α-Gal A Levels. α-Gal A levels in WBCs will be determined in blood samples by a validated assay measuring enzyme activity using 4-MUG, with and without Con A. α-Gal A protein levels will be measured by Western blotting using anti-human Gal A antibody.
(§1) Methods. The study was conducted according to the methods described in Example 1. Specifically, this was an open-label, single dose, non-randomized, fixed-sequence, 2-stage study. Stage 1 comprised of 3 periods: • (1) agalsidase beta 0.5 mg/kg or 1.0 mg/kg (infusion for about 2 hours) or agalsidase alpha 0.2 mg/kg (infusion for about 40 min.) enzyme replacement montherapy (ERT); • (2) ERT+150 mg migalastat oral tablet (single dose) co-administration, migalastat administered 2 hrs. prior to ERT; and • (3) 150 mg migalastat monotherapy.
(§2) α-Gal A catalyzes the initial step in breakdown of substrate GL-3 in vivo. α-Gal A also acts on other substrates with the same α-bond such as the artificial low-molecular weight florescent substrate, 4-MUG. α-Gal A activity on 4-MUG was measured in vitro from plasma, skin, and PBMC samples following serial dilutions to dissociate migalastat.
(§3) 6 patients with plasma, skin, and PBMC α-galactosidase A activity from Stage 1, Periods 1 and 2, were evaluated. Four patients received 0.5 mg/kg agalsidase beta ERT and 2 patients received 1.0 mg/kg agalsidase beta ERT during Period 1, and co-administration of 150 mg migalastat 2 hours prior to initiation of the same dose of ERT during Period 2.
(§4) Serial blood samples were taken to 24 hours post dose for plasma α-Gal A activity and protein levels each period. Blood samples for α-Gal A activity in peripheral blood mononuclear cells (PBMCs) were taken at predose and on Days 1, 2, 7, and 14 of each period. Punch biopsies for skin α-Gal A activity were taken at predose Period 1 and on Days 2 and 7 during Periods 1 and 2. Plasma α-Gal A activity PK parameters include Cmax, Tmax, AUC0-t, AUC0-inf, and t1/2. Pharmacokinetic parameters are calculated using standard non-compartmental procedures (WINNONLIN version 5.0 or higher).
(§5) α-Gal A activity in plasma skin, and PBMC lysates were measured by a fluorescence enzyme assay using 4-methylumbelliferyl-α-D-galactopyranoside (4-MUG). α-Gal A activity on 4 MUG was measured in vitro following serial dilutions to dissociate migalastat.

Series [3] has as its target T1, α-Gal A. As to the kind of experiment: Phase 2 co-administration study: skin α-Gal A activity (4-MUG). Type of series: in vivo. On the procedure: α-Gal A Enzyme Levels in Skin. α-Gal A enzyme levels will be examined in skin biopsy samples. Skin biopsies will be done using a “punch” device. One piece will be removed at each visit. α-Gal A levels in skin will be determined by a validated assay measuring enzyme activity using 4-MUG, with and without Con A. α-Gal A protein levels will be measured by Western blotting using anti-human Gal A antibody.
as §1, §2, §3, §4, §5

Series [4] in a line: Phase 2 co-administration study: safety. It is filed as in vivo, human. An excerpt:
Safety Parameters. Safety parameters will be assessed by review of changes in physical exam findings, vital signs, ECG changes over time, clinical labs and adverse events.
The safety parameters included adverse events (AEs), vital signs, clinical laboratory tests (hematology, serum chemistry, and urinalysis), electrocardiograms (ECGs), physical examinations, and use of concomitant medications.

The target in series [5] is T3, rhα-Gal A (Homo sapiens, UniProt P06280).
T3 sequence (P06280 32-429): T1 sequence (P06280 32-429)
Put plainly: In vitro stabilization of rhα-Gal A at neutral pH (thermal denaturation and activity). Type of series: biochemical. An excerpt:
Migalastat hydrochloride stabilizes wild-type α-Gal A in vitro and as well as in vivo.

The target in series [6] is T1, α-Gal A. Put plainly: Phase 2 co-administration study: skin α-Gal A activity (4-MUG). It is filed as in vivo. To be noted: 150 mg migalastat HCl + 0.5 mg/kg agalsidase beta, N=5 (Example 3).
The target of series [7] is T1, α-Gal A. Put plainly: Phase 2 co-administration study: PBMC α-Gal A activity (4-MUG). Type of series: in vivo. To be noted: 150 mg migalastat HCl + 0.5 mg/kg agalsidase beta, N=5 (Example 3).
Series [8] concerns the target T3, rhα-Gal A. As to the kind of experiment: Oral migalastat hydrochloride with rhα-Gal A injection in the GLA deficient mouse, tissue α-Gal A and GL-3. It is filed as in vivo. The settings on record: 30, 100 or 300 mg/kg oral 30 min prior to and 2 hours after rhα-Gal A, vs rhα-Gal A alone.
For series [9] the following is noted: male GLA-deficient mice; 3 and 30 mg/kg three times a week for four weeks with Fabrazyme 1 mg/kg i.v. once a week. On the procedure: A preliminary study in GLA deficient mice has been conducted evaluating the safety of co-administered migalastat hydrochloride and Fabrazyme®. Migalastat hydrochloride was administered three times a week for four weeks at doses of 3 and 30 mg/kg in combination with Fabrazyme® administered intravenously once a week at a dose of 1 mg/kg.

For series [10] the following is noted: cited from earlier work.
For series [11] the following is noted: cited from earlier work. This is another data set of the same source.
For series [12] the following is noted: cited from earlier work. The source holds these as a separate data set.
The mark [13] stands for this setting: 150 mg migalastat + 1.0 mg/kg agalsidase beta, Day 2, N=2.
Setting [14] is: 150 mg migalastat + 1.0 mg/kg agalsidase beta, Day 7, N=2.

“And” between values parts separate entries of the source, which are not always exact repeats. Identical values can stand only once. Counter-ions that a name gives are not always drawn. Like-named read-outs stand apart in the source and are kept apart here.

On to `OC[C@H]1NC[C@H](O)[C@@H](O)[C@H]1O` [migalastat hydrochloride, (2R,3S,4R,5S)-2-(hydroxymethyl)piperidine-3,4,5-triol], for which, on α-Gal A [1], the “plasma α-Gal A protein, Period 2 (co-administration)/Period 1 (ERT alone) AUC ratio” value is recorded as “No change”. Moreover, the “melting temperature (Tm) of agalsidase alfa” value at agalsidase alfa (pH 5.2, 10 μM migalastat hydrochloride) amounted to 68 °C; on agalsidase alfa (pH 7.4, 10 μM migalastat hydrochloride), 59 °C. Besides, the “individual patient increase range in PBMC α-Gal A activity” value at α-Gal A [2] (150 mg migalastat + 0.5 mg/kg agalsidase beta, Day 2) is reported as 1.4-3.1 fold; on α-Gal A [2] (150 mg migalastat + 0.5 mg/kg agalsidase beta, Day 7), 1.4-2.3 fold; at α-Gal A [2] (150 mg migalastat + 0.5 mg/kg agalsidase beta, Day 14), 1.7-2.8 fold. Moreover, the “mean increase in PBMC α-Gal A activity” value is reported as 2.3 fold on α-Gal A [2] (150 mg migalastat + 0.5 mg/kg agalsidase beta, Day 2, N=4 (Example 2)); 2.0 fold on α-Gal A [2] (150 mg migalastat + 0.5 mg/kg agalsidase beta, Day 7, N=4 (Example 2)); 2.2 fold on α-Gal A [2] (150 mg migalastat + 0.5 mg/kg agalsidase beta, Day 14, N=4 (Example 2)); 1.8 fold on α-Gal A [2] (setting [13]); 4.8 fold on α-Gal A [2] (setting [14]); 3.5 fold on α-Gal A [2] (150 mg migalastat + 1.0 mg/kg agalsidase beta, Day 14, N=2). Besides, the entries for the “mean increase in PBMC α-Gal A activity” value on α-Gal A [7] (Day 2), on α-Gal A [7] (Day 7) and on α-Gal A [7] (Day 14) were 2.4 fold, 1.9 fold and 2.1 fold, respectively. The “individual patient increases in PBMC α-Gal A activity” value is 1.1 fold and 2.5 fold at α-Gal A [2] (150 mg migalastat + 1.0 mg/kg agalsidase beta, Day 2); 3.6 fold and 6.0 fold at α-Gal A [2] (150 mg migalastat + 1.0 mg/kg agalsidase beta, Day 7); 1.7 fold and 5.4 fold on α-Gal A [2] (150 mg migalastat + 1.0 mg/kg agalsidase beta, Day 14). Besides, the “individual patient increases in skin α-Gal A activity” value on α-Gal A [3] (150 mg migalastat + 0.5 mg/kg agalsidase beta, Day 2 (Example 2), 0.5 mg/kg) is 2.8 fold and 3.9 fold and 1.1 fold; at α-Gal A [3] (150 mg migalastat + 1.0 mg/kg agalsidase beta, Day 2, 1 mg/kg), 1.6 fold and 2.1 fold; at α-Gal A [3] (150 mg migalastat + 1.0 mg/kg agalsidase beta, Day 7, 1 mg/kg), 1.7 fold and 1.2 fold. The “mean increase in skin α-Gal A activity” value was 2.6 fold at α-Gal A [3] (150 mg migalastat + 0.5 mg/kg agalsidase beta, Day 2, N=3 (Example 2)); 1.9 fold on α-Gal A [3] (setting [13]); 1.5 fold at α-Gal A [3] (setting [14]); 2.6 fold at α-Gal A [6] (Day 2); 1.4 fold at α-Gal A [6] (Day 7). Besides, on α-Gal A [3] (150 mg migalastat + 0.5 mg/kg agalsidase beta, Day 7 (Example 2)), the “change in skin α-Gal A activity from Period 1” value is “No change”. Further, at α-Gal A [3] (150 mg migalastat + 0.5 or 1.0 mg/kg agalsidase beta, Day 7), the “patients with increased skin α-Gal A activity following co-administration” value was 3 of 5 and four. Besides, the safety and tolerability result in series [4] (co-administration of 150 mg migalastat HCl with agalsidase beta) was “generally safe and well-tolerated”. Further, in series [4] (seven subjects, to date, one serious (TIA, prior to dosing), all considered unrelated to study drug), the “adverse events (AEs) reported” value came to 12. Moreover, the “stabilization of rhα-Gal A” value at rhα-Gal A [5] is “significant time- and concentration-dependent increases in stabilization”. The “GL-3 levels in skin, heart, kidney, and plasma” value on rhα-Gal A [8] is on record as “dose-dependent reduction”. Also, at rhα-Gal A [8], the “tissue α-Gal A levels” value was “dose-dependent increase”. The “survival, clinical condition, hematology and clinical chemistry parameters” value in series [9] is “no direct drug-related changes”.
Regarding “agalsidase alfa: recombinant α-Gal A enzyme replacement therapy (Replagal®, Shire Human Genetic Therapies)”, the “melting temperature (Tm) of agalsidase alfa” value is 58 °C with agalsidase alfa (pH 5.2, enzyme alone) and “approximately 51 °C” in the series with agalsidase alfa (pH 7.4, enzyme alone). Moreover, in [10] (0.1 to 0.4 mg/kg), the AUC versus dose result is “linearly proportional to dose”. In addition, the IgE antibodies entry in series [10] (10-week study) is reported as “No IgE antibodies were detected”. For the same compound, the “patients who became IgG positive during the study” value in [10] (10-week study) was “Two of 18”. Moreover, the “Plasma GL-3 levels reduction” value in series [10] (all dose groups, independent of dose and dosing frequency) was “approximately 50%”. In addition, the mean half life in series [10] (doses 0.1 to 0.4 mg/kg agalsidase alfa, ERT naïve adult male Fabry patients) was 56 to 76 min.
On to “agalsidase beta: recombinant α-Gal A enzyme replacement therapy (Fabrazyme®; Genzyme Corporation)”, for which, in the series with α-Gal A [2] (agalsidase beta alone, all patients, all time points), the “PBMC α-Gal A activity relative to baseline” value is given as “increased”. Further, in the series with α-Gal A [3] (agalsidase beta alone, 0.5 mg/kg infusion, Day 2), the “patients with decreased skin α-Gal A activity relative to baseline” value is on record as 2. In addition, the “maximal agalsidase concentrations and AUC values reduced, of baseline values” in series [11] (adult patients with the highest titers of IgG) is on record as “up to 26%”. In addition, the “patients who developed IgG antibodies” value was 79% in [11] (adult patients) and 69% in [11] (pediatric patients). Further, in [12] (AUC increasing and clearance decreasing disproportionally with dose), the “pharmacokinetics, dose linearity” value is on record as “non-linear pharmacokinetics”. Moreover, the AUC increase entry is recorded as “approximately 6 fold” in series [12] (dose increased from 0.3 mg/kg to 1 mg/kg) and about 8 fold in [12] (dose increased from 1 mg/kg to 3 mg/kg).
